Test results from patent US9290688B2, “Alkaline microbial enhanced oil recovery” (GEO FOSSIL FUELS, LLC, priority 2011, dated 2016).

Tested on: Rhodococcus rhodochrous ATCC #53968
Assay: End of digestion: oil and aqueous volumes, acid number by alcoholic alkaline extraction and back titration
Format: cell-based
Conditions: one ml of oil, alcoholic alkaline extraction, back titration; acrylic acid value per gram of oil emulsion
Experimental: An oil degrading microorganism was used to evaluate the use of chemical inhibitors to slow the utilization of hydrocarbons in petroleum. In a non-limiting example, three different chemical compounds that have been reported to inhibit beta-oxidation were tested in oil and culture medium on a petroleum sample with a strain of Rhodococcus rhodochrous ATCC #53968 in m9 minimal medium. To test the ability of each chemical inhibitor to slow the consumption of fatty acids a culture of bacteria was grown on a crude oil sample for a period of three days with crude petroleum oil as the only carbon source. Four separate flasks were set up, each with an oil to aqueous media ratio of 1 to 5 (10 ml of crude oil to 50 ml of culture medium). Each of the three chemical inhibitors was added to a separate flask and a fourth flask was allowed to digest without the addition of a chemical inhibitor as a control. The flasks were shaken at a room temperature of about 25° C. under aerobic conditions. The progress of the microbial digestion was monitored by the optical density at 600 nm and by visual inspection of the brown oil color in the aqueous phase. Three days after the addition of inhibitors, or a total of six days of incubation with oil, a small sample of oil (0.31 g) was removed. A second sample of the same size was remover after another 6 days. The organic acids were extracted from each oil sample with 1% NaOH in 70% ethanol. […]
At the end of the experiment the oil and water were separated and the volume determined. […] This would have under reported the amount of methyl esters determined by GC analysis. The amount of aqueous phase was determined to be 22.5 ml for the acrylic acid sample and 46 ml, 48 ml and 47.5 ml for the others. […] The calculated acid number for the uninhibited digestion was 5 mg of KOH per gram. The other two inhibited digestions were analyzed to be 4.5 mg for the 2-bromooctanoic acid and 6.5 for the 2-bromohexadecanoic acid inhibited digestion. The undigested oil was determined to have an acid number of 6.5 mg of KOH by analysis of a one gram sample and a 10 gram sample. […]

Compound	final analysis acid number [mg KOH per gram]
C=CC(=O)O [AA, acrylic acid]	10
CCCCCCC(Br)C(=O)O (centres unmarked) [Br C8, 2-bromooctanoic acid]	4.5
